Compound in this test: O=C(O)C(F)(F)C(F)(F)C(F)(F)C(F)(F)C(=O)O [Octafluoroadipic acid] (in DMSO)
Nature of the test: level (log10 ratio to DMSO vehicle control); higher = higher biomarker level / cell amount than vehicle control. The protocol:
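BioMAP Diversity Plus panel of 12 human primary cell co-culture systems (3C, 4H, LPS, SAg, BT, BF4T, BE3C, CASM3C, HDF3CGF, KF3CT, MyoF, Mphg). Compounds were added 1 h before stimulation and left for 24 h (MyoF 48 h; BT 72 h for soluble read-outs or 6 d for IgG). Biomarkers were read by ELISA, cytotoxicity by SRB, PBMC viability and proliferation by Alamar Blue. Each well value was divided by the mean of 8 DMSO control wells on the same plate and log10 transformed; duplicate blinded samples were tested at 4 concentrations.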

The text below walks through data of the supplement of paper PMC10331698.

± gives the standard deviation of the averaged measurements.

Turning to lMphg:SRB, the “level (log10)” value (6700 nM) is -0.023 ± 0.017, the “level (log10)” value (20000 nM) is -0.0045 ± 0.00071 and the “level (log10)” value (60000 nM) was determined as 0.001 ± 0.023.

Take lMphg:SRB-Mphg: the “level (log10)” value (6700 nM) is -0.026 ± 0.016, the “level (log10)” value (20000 nM) came out at 0.0135 ± 0.022 and the “level (log10)” value (60000 nM) was 0.0265 ± 0.029.

With lMphg:sIL-10, the “level (log10)” value runs as follows: (6700 nM) -0.067 ± 0.014; (20000 nM) -0.0425 ± 0.077; (60000 nM) -0.0425 ± 0.046.
